This note sets out measurements from ChEMBL document CHEMBL1126576, “Structure-activity relationships of the antimalarial agent artemisinin. 1. Synthesis and comparative molecular field analysis of C-9 analogs of artemisinin and 10-deoxoartemisinin” (1993).

The source made the active and inactive calls. The calls are words filed in the database; no cut-off is given here.

Test [1] has as its system Plasmodium falciparum. Put plainly: In vitro relative potency against Plasmodium falciparum Sierra Leone D6. The format is functional.
For test [2], the system named is Plasmodium falciparum. Put plainly: Relative activity against Plasmodium falciparum W2 Indochina compared to artemisinin. The class given is functional.
Test [3] deals with Plasmodium falciparum. Put plainly: Relative activity against Plasmodium falciparum D6 (Sierra Leone) compared to artemisinin. The format is functional.
Test [4] deals with Plasmodium falciparum. Put plainly: Relative activity compared to artemisinin against Plasmodium falciparum Indochina W-2; Not active. The format is functional, organism-based.
For test [5], the system named is Plasmodium falciparum. Put plainly: Relative activity compared to artemisinin against Plasmodium falciparum D6 (Sierra Leone); Not active. The format is functional, organism-based.
Test [6] concerns Plasmodium falciparum. Put plainly: Relative activity compared to artemisinin against Plasmodium falciparum Sierra Leone D6. The format is functional.
Test [7] has as its system Plasmodium falciparum. Put plainly: Relative activity compared to artemisinin against Plasmodium falciparum Indochina W2. The format is functional.

Turning to `C[C@@H]1CC[C@H]2[C@](C)(Br)[C@@H](Nc3cccc(F)c3)O[C@@H]3O[C@@]4(C)CC[C@@H]1[C@]32OO4`, the Relative activity in the test on Plasmodium falciparum [1] was found to be 3.5.
Take `C=CC[C@H]1C(=O)O[C@@H]2O[C@@]3(C)CC[C@H]4[C@H](C)CC[C@@H]1[C@@]24OO3`: the results for the Relative activity with Plasmodium falciparum [2] and in the test on Plasmodium falciparum [3] were 0.72 and 0.31, respectively.
Consider `C[C@@H]1CC[C@H]2[C@](C)(Br)[C@@H](Nc3ccccn3)O[C@@H]3O[C@@]4(C)CC[C@@H]1[C@]32OO4`, for which the Relative activity in the test on Plasmodium falciparum [1] came out at 0.02.
For the molecule `CC[C@H]1C(=O)O[C@@H]2O[C@@]3(C)CC[C@H]4[C@H](C)CC[C@@H]1[C@@]24OO3`, the Relative activity with Plasmodium falciparum [2] came to 12.26; in the test on Plasmodium falciparum [3], 6.42.
Turning to `C[C@@H]1CC[C@H]2[C@H](C)C(=O)O[C@@H]3O[C@@]4(C)CC[C@@H]1[C@]32O4`, the Relative activity entry in the test with Plasmodium falciparum [4] and with Plasmodium falciparum [5] was “inactive” each time.
On to `CC(C)CC[C@H]1C(=O)O[C@@H]2O[C@@]3(C)CC[C@H]4[C@H](C)CC[C@@H]1[C@@]24O3`, for which the Relative activity with Plasmodium falciparum [6] stood at 0.13; in the test on Plasmodium falciparum [7], 0.14.
For the molecule `CCCCC[C@H]1C(=O)O[C@@H]2O[C@@]3(C)CC[C@H]4[C@H](C)CC[C@@H]1[C@@]24OO3`, the Relative activity in the test with Plasmodium falciparum [2] was 8.67; in the test on Plasmodium falciparum [3], 3.67.
For the molecule `C[C@@H]1CC[C@H]2[C@@H](CC(=O)O)C(=O)O[C@@H]3O[C@@]4(C)CC[C@@H]1[C@]32OO4`, the Relative activity in the test on Plasmodium falciparum [2] was 0.003; with Plasmodium falciparum [3] it was 0.002.
As for `CC(C)CCC[C@H]1C(=O)O[C@@H]2O[C@@]3(C)CC[C@H]4[C@H](C)CC[C@@H]1[C@@]24OO3`, the Relative activity in the test with Plasmodium falciparum [2] worked out at 0.74; in the test on Plasmodium falciparum [3], 0.31.
In the test with Plasmodium falciparum [1], `C[C@@H]1CCC[C@@]23CO[C@@](C)(CC[C@@H]12)OO3` yielded a Relative activity of 0.37.
Molecule `CO[C@]1(C)CC[C@H]2[C@H](C)CCC[C@]2(C=O)OO1` showed a Relative activity in the test on Plasmodium falciparum [1] of 0.001.
On to `C[C@@H]1CC[C@H]2[C@@H](CCCCc3ccccc3)C(=O)O[C@@H]3O[C@@]4(C)CC[C@@H]1[C@]32OO4`, for which the Relative activity is recorded as 3 in the test on Plasmodium falciparum [2] and 1.37 in the test on Plasmodium falciparum [3].
With `CCCCCC[C@H]1C(=O)O[C@@H]2O[C@@]3(C)CC[C@H]4[C@H](C)CC[C@@H]1[C@@]24OO3`, the results for the Relative activity in the test on Plasmodium falciparum [2] and with Plasmodium falciparum [3] were 5.5 and 4.67, respectively.
Regarding `CCCCCC[C@H]1C(=O)O[C@@H]2O[C@@]3(C)CC[C@H]4[C@H](C)CC[C@@H]1[C@@]24O3`, the figures for the Relative activity with Plasmodium falciparum [6] and with Plasmodium falciparum [7] were 0.07 and 0.02, respectively.
For the molecule `C[C@@H]1CC[C@H]2[C@@H](C)C(=O)O[C@@H]3O[C@@]4(C)CC[C@@H]1[C@]32O4` [DEOXYARTEMISININ], the Relative activity in the test on Plasmodium falciparum [6] and in the test with Plasmodium falciparum [7] was 0.001 in each case.
For `C[C@@H]1CC[C@H]2[C@@H](CCCc3ccccc3)C(=O)O[C@@H]3O[C@@]4(C)CC[C@@H]1[C@]32O4`, the Relative activity in the test with Plasmodium falciparum [6] and in the test with Plasmodium falciparum [7] was 0.15 throughout.
In the case of `CC(C)C[C@H]1C(=O)O[C@@H]2O[C@@]3(C)CC[C@H]4[C@H](C)CC[C@@H]1[C@@]24OO3`, the Relative activity with Plasmodium falciparum [2] was found to be 0.24; in the test on Plasmodium falciparum [3], 0.2.
The like results for `C[C@@H]1CC[C@H]2[C@@H](CCc3ccccc3)C(=O)O[C@@H]3O[C@@]4(C)CC[C@@H]1[C@]32OO4` were, in that order, 1 and 1.69.
`O=C1C=C2CCCC3CC4OO[C@@]23[C@H](O1)O4` (single isomer, unassigned): the Relative activity with Plasmodium falciparum [2] and in the test on Plasmodium falciparum [3] was 0.02 in each case.
With `CC1CCC2C(CCCCc3ccccc3)C(=O)OC3OC4(C)CCC1C32O4` (configuration not stated), the Relative activity result with Plasmodium falciparum [4] and in the test with Plasmodium falciparum [5] was “inactive” in each case.
Turning to `C[C@@H]1CC[C@H]2[C@@H](CCCc3ccccc3)C(=O)O[C@@H]3O[C@@]4(C)CC[C@@H]1[C@]32OO4`, the Relative activity with Plasmodium falciparum [2] worked out at 4.45; with Plasmodium falciparum [3], 6.11.
The molecule `C[C@@H]1CC[C@H]2[C@](C)(Br)[C@@H](Nc3nccs3)O[C@@H]3O[C@@]4(C)CC[C@@H]1[C@]32OO4` had a Relative activity in the test with Plasmodium falciparum [1] of 0.62.
Still for that read-out and setting: the figure for `C[C@@H]1CC[C@H]2[C@](C)(Br)[C@@H](Nc3ccccc3)O[C@@H]3O[C@@]4(C)CC[C@@H]1[C@]32OO4` is 0.16.
For the molecule `CCCCCCCCCCCCCC[C@H]1C(=O)O[C@@H]2O[C@@]3(C)CC[C@H]4[C@H](C)CC[C@@H]1[C@@]24O3`, the Relative activity with Plasmodium falciparum [2] and in the test with Plasmodium falciparum [3] was 0.05 in each case.
`C[C@@H]1CC[C@H]2C(C)(C)C(=O)O[C@@H]3O[C@@]4(C)CCC1[C@]32OO4` (some centres not stated): the Relative activity in the test on Plasmodium falciparum [2] is 0.006; in the test with Plasmodium falciparum [3] it was 0.02.
In the same order, the values of `C[C@@H]1CC[C@H]2[C@@H](C)C(=O)O[C@@H]3O[C@@]4(C)CC[C@@H]1[C@]32OO4` [ARTEMISININ] are 1 and 1.
As to `C=CC[C@H]1C(=O)O[C@@H]2O[C@@]3(C)CC[C@H]4[C@H](C)CC[C@@H]1[C@@]24O3`, the Relative activity result in the test with Plasmodium falciparum [4] and in the test with Plasmodium falciparum [5] was “inactive” throughout.
`CCCC[C@H]1C(=O)O[C@@H]2OC(C)(C)OO[C@@]23CCCC[C@@H]13` returned a Relative activity with Plasmodium falciparum [1] of 0.1.
Take `CC(C)CC[C@H]1C(=O)O[C@@H]2O[C@@]3(C)CC[C@H]4[C@H](C)CC[C@@H]1[C@@]24OO3`: the Relative activity with Plasmodium falciparum [2] is on record as 0.98; in the test on Plasmodium falciparum [3] it was 1.57.
For the molecule `CCCCC[C@H]1C(=O)O[C@@H]2O[C@@]3(C)CC[C@H]4[C@H](C)CC[C@@H]1[C@@]24O3`, the Relative activity entry in the test with Plasmodium falciparum [4] and with Plasmodium falciparum [5] was “inactive” in each case.
As for `CC1CCC2C(CCc3ccccc3)C(=O)OC3OC4(C)CCC1C32O4` (configuration not stated), the Relative activity entry with Plasmodium falciparum [4] and in the test with Plasmodium falciparum [5] was “inactive” each time.
`CO[C@H]1O[C@@]2(C)CC[C@H]3CCCC[C@]31OO2` displayed a Relative activity with Plasmodium falciparum [1] of 0.11.
Consider `CCC[C@H]1C(=O)O[C@@H]2O[C@@]3(C)CC[C@H]4[C@H](C)CC[C@@H]1[C@@]24OO3`, for which the Relative activity in the test on Plasmodium falciparum [2] was 12.25; with Plasmodium falciparum [3], 5.5.
For `CCCCCCCCCCCCCC[C@H]1C(=O)O[C@@H]2O[C@@]3(C)CC[C@H]4[C@H](C)CC[C@@H]1[C@@]24OO3`, the Relative activity in the test with Plasmodium falciparum [2] and in the test with Plasmodium falciparum [3] was 0.001 throughout.
As to `C[C@@H]1CC[C@H]2[C@](C)(Br)[C@@H](Nc3ncccn3)O[C@@H]3O[C@@]4(C)CC[C@@H]1[C@]32OO4`, the Relative activity in the test on Plasmodium falciparum [1] is reported as 0.01.
The same measure, in the same setting: the figure for `C[C@@H]1CC[C@H]2[C@@H](C)C(=O)O[C@@H]3OC(C)(C)OO[C@@]32[C@H]1C` is 0.4.
Consider `CCC[C@H]1C(=O)O[C@@H]2O[C@@]3(C)CC[C@H]4[C@H](C)CC[C@@H]1[C@@]24O3`, for which the figures for the Relative activity with Plasmodium falciparum [6] and in the test on Plasmodium falciparum [7] were 0.06 and 0.07, respectively.
`CO[C@@H]1O[C@@]2(C)CC[C@H]3CCCC[C@]31OO2` gave a Relative activity with Plasmodium falciparum [1] of 0.13.
Same read-out and setting: the figure for `C[C@H]1CO[C@@H]2O[C@@]3(C)CC[C@H]4CCC[C@@H]1[C@]42OO3` is 4.02.
As to `CCCC[C@H]1C(=O)O[C@@H]2O[C@@]3(C)CC[C@H]4[C@H](C)CC[C@@H]1[C@@]24OO3`, the Relative activity came to 1.28 in the test with Plasmodium falciparum [2] and 0.96 in the test with Plasmodium falciparum [3].
The like results for `C[C@@H]1CC[C@H]2CC(=O)O[C@@H]3O[C@@]4(C)CC[C@@H]1[C@@]23OO4` were, in that order, 6.5 and 1.8.
On to `CC(C)CCC[C@H]1C(=O)O[C@@H]2O[C@@]3(C)CC[C@H]4[C@H](C)CC[C@@H]1[C@@]24O3`, for which the Relative activity result in the test with Plasmodium falciparum [4] and with Plasmodium falciparum [5] was “inactive” throughout.
Turning to `C[C@@H]1CC[C@H]2CC(=O)O[C@@H]3O[C@@]4(C)CC[C@@H]1[C@@]23O4`, the Relative activity result in the test with Plasmodium falciparum [4] and with Plasmodium falciparum [5] was “inactive” in each case.
Turning to `CCCC[C@H]1C(=O)O[C@@H]2O[C@@]3(C)CC[C@H]4[C@H](C)CC[C@@H]1[C@@]24O3`, the Relative activity result in the test with Plasmodium falciparum [4] and in the test with Plasmodium falciparum [5] was “inactive” each time.
For the molecule `C[C@]12CC[C@H]3CCCC[C@@]3(OO1)[C@H](OCc1ccccc1)O2`, the Relative activity with Plasmodium falciparum [1] came out at 0.03.
Regarding `CC(C)C[C@H]1C(=O)O[C@@H]2O[C@@]3(C)CC[C@H]4[C@H](C)CC[C@@H]1[C@@]24O3`, the Relative activity result in the test with Plasmodium falciparum [4] and in the test with Plasmodium falciparum [5] was “inactive” throughout.
For the molecule `CC12CCC3CCCC4CC(=O)OC(O1)C34OO2` (configuration not stated), the Relative activity in the test with Plasmodium falciparum [2] was determined as 0.96; in the test on Plasmodium falciparum [3], 0.24.
The like results for `CC(C)[C@H]1C(=O)O[C@@H]2O[C@@]3(C)CC[C@H]4[C@H](C)CC[C@@H]1[C@@]24OO3` were, in that order, 0.84 and 2.03.
In the test with Plasmodium falciparum [1], `CC1(C)OO[C@]23CCCC[C@H]2CC(=O)O[C@@H]3O1` yielded a Relative activity of 0.01.
For the molecule `C[C@@H]1CC[C@H]2[C@H](C)C(=O)O[C@@H]3O[C@@]4(C)CC[C@@H]1[C@]32OO4`, the Relative activity with Plasmodium falciparum [2] is 0.67; with Plasmodium falciparum [3], 0.14.
Turning to `C/C=C\CC1C(=O)O[C@@H]2O[C@@]3(C)CC[C@H]4[C@H](C)CC[C@@H]1[C@@]24OO3` (single isomer, unassigned), the values for the Relative activity in the test with Plasmodium falciparum [2] and in the test on Plasmodium falciparum [3] were 0.07 and 0.09, respectively.
Take `C[C@@H]1CC[C@H]2C(C)(C)C(=O)O[C@@H]3O[C@@]4(C)CC[C@@H]1[C@]32O4`: the Relative activity result with Plasmodium falciparum [4] and in the test on Plasmodium falciparum [5] was “inactive” throughout.
`C/C=C/CC1C(=O)O[C@@H]2O[C@@]3(C)CC[C@H]4[C@H](C)CC[C@@H]1[C@@]24OO3` (single isomer, unassigned): the Relative activity in the test on Plasmodium falciparum [2] came to 0.22; with Plasmodium falciparum [3], 0.38.
